Source: ChEMBL document CHEMBL2074174, “Directional trans-epithelial transport of organic anions in porcine LLC-PK1 cells that co-express human OATP1B1 (OATP-C) and MRP2” (Biochem Pharmacol, 2005)

Molecular target: Canalicular multispecific organic anion transporter 1/Solute carrier organic anion transporter family member 1B1 (Homo sapiens, UniProt Q92887+Q9Y6L6)
Test: TP_TRANSPORTER: Transepithelial Transport (basal to apical) in OATP1B1/MRP2 double transfected LLC-PK1 cell
Type: functional, cell-based
Details: pig

Compound | Activity
C[C@]12CC[C@@H]3c4ccc(O)cc4CC[C@H]3[C@@H]1CC[C@@H]2O[C@@H]1O[C@H](C(=O)O)[C@@H](O)[C@H](O)[C@H]1O [ESTRADIOL 17B GLUCURONIDE] | substrate [(+)]
C[C@]12CC[C@@H]3c4ccc(OS(=O)(=O)O)cc4CC[C@H]3[C@@H]1CCC2=O [ESTRONE SULFURIC ACID] | substrate [(+)]
C[C@]12CC[C@H](OS(=O)(=O)O)CC1=CC[C@@H]1[C@@H]2CC[C@]2(C)C(=O)CC[C@@H]12 [PRASTERONE SULFURIC ACID] | substrate [(+)]
